Where two headings read alike, the source gives them in different places.

Data set [1] concerns HBV DNA. The note with it: cited from earlier work.
Another data set relates to HBsAg. Conditions: cited from earlier work.
The conditions of data set [2]: read-out: CC50 cytotoxicity; cited from earlier work.
The subject of data set [3] is HBV DNA. Put plainly: Cryopreserved PHH assay, real-time qPCR of HBV DNA in culture supernatant. The format is cell-based, type D HBV in human primary hepatocytes (PHH). The note with it: Hepatitis B virus, 240 h; PHH infected with type D HBV, supernatant day 10, qPCR. As to the method:
(§1) The inhibitory effect of the compounds on HBV was evaluated by real-time quantitative qPCR assay (real time-qPCR) to detect the HBV DNA content in human primary hepatocytes (PHH) culture supernatant, and ELISA to detect the hepatitis B surface antigen and e antigen content, the EC50 value of the compounds was used as an indicator; meanwhile, the cell viability was detected by CellTiter-Glo to evaluate the toxicity of the compounds to cells.
(§2) 3.1. On day 0, PHH (1.32×10^5 cells/well) was seeded into a 48-well plate and incubated overnight at 37° C., 5% CO2.
(§3) 3.2. On the first day, PHH was infected with type D HBV (concentrated from HepDE19 cell culture supernatant).
(§4) 3.3 On the second day, the test compound was diluted to 7 concentrations with 5-fold serial dilution. Reference compound Peg-IFN-α 2a, 7 concentrations with 3-fold serial dilution. Compounds with different concentrations were added to the culture wells, and the wells were double-duplicated wells. The final concentration of DMSO in the culture medium was 2%.
(§5) 3.4 On the 4th, 6th, and 8th day, the culture medium was replaced by a fresh culture medium containing the compound.
(§6) 3.5 After collecting the culture supernatant from the culture well on the 10th day, the cell viability was tested with CellTiter-Glo. A portion of the culture supernatant was collected for ELISA determination to detect the content of hepatitis B virus surface antigen and e antigen; a portion of the sample was collected for extract DNA using a high-throughput DNA purification kit, referring to the product instructions for the specific steps.
3.6 Quantitative PCR to detect the content of HBV DNA
The qPCR reaction mixture, sample and standard were added to the 384 well reaction plate. PCR reactions: 95° C., 10 min; 95° C., 15 sec, 60° C., 1 min, 40 cycles.
(§7) Calculation of the inhibition percentage of HBV DNA, HBV surface antigen and e antigen. % Inh.=(1−value of the sample/value of DMSO control)×100.

The test system of another data set is HBV e antigen (HBeAg). Put plainly: Cryopreserved PHH assay, ELISA of hepatitis B e antigen in culture supernatant. The data set is classed as cell-based, type D HBV in human primary hepatocytes (PHH). The note with it: Hepatitis B virus, 240 h, read-out: HBeAg EC50. As to the method: as §1, §2, §3, §4, §5, §6
(§8) 3.7 ELISA determination of hepatitis B virus surface antigen and e antigen
(§9) The specific steps can be referred to the product manual, the steps are briefly described as follows: 50 μL of sample and standard was added to the reaction plate respectively, 50 μL of enzyme conjugate was added to each well, the mixture was shaken and mixed well, then kept in a warm bath at 37° C. for 60 minutes, the plate was washed with washing solution for 5 times, 50 μL of the luminescent substrate was added to each well, the mixture was mixed well, and the reaction was carried out in the dark at room temperature for 10 minutes, and finally the chemiluminescence intensity was detected with the instrument.
as §7

The test system of data set [4] is HBV surface antigen (HBsAg). Put plainly: Cryopreserved PHH assay, ELISA of hepatitis B surface antigen in culture supernatant. The format is cell-based, type D HBV in human primary hepatocytes (PHH). The note with it: Hepatitis B virus, 240 h, read-out: HBsAg EC50. As to the method: as §1, §2, §3, §4, §5, §6, §8, §9, §7
In general terms: An ELISA detects its analyte on a solid surface through an enzyme-linked reagent.

The nature of data set [5]: Cryopreserved PHH assay, cell viability by CellTiter-Glo. The data set is classed as cell-based. Conditions: human, cryopreserved primary human hepatocytes (PHH), day 10, CellTiter-Glo. As to the method: as §1, §2, §4, §5, §6
Calculation of the percentage of cell viability: % viability=the luminescence value of the sample/the luminescence value of the DMSO control×100.

In the case of `Clc1cc2nc(N3CCN(c4ccccn4)CC3)[nH]c2cc1Cl` [BM601], the 50% effective concentration (EC50) was 600 nM in the data set with HBV DNA [1] and 1500 nM in the data set on HBsAg. In addition, the CC50 in data set [2] is 24500 nM.

Take `CC1(C)N=C(c2cc(-c3ccc(C(=O)O)cc3)c[nH]2)Nc2c(Cl)cccc21` [Compound I-51, 4-(5-(8-chloro-4,4-dimethyl-1,4-dihydroquinazolin-2-yl)-1H-pyrrol-3-yl)benzoic acid]: the concentration giving a half-maximal response (EC50) is 9.7 nM in the data set with HBV DNA [3], 10 nM with HBV e antigen (HBeAg) and more than 50000 nM in data set [4]. The 50% cytotoxic concentration (CC50) at 8 days in data set [5] is more than 50000 nM.

For `CC1N=C(c2nc(-c3ccc(C(=O)O)cc3)cs2)Nc2c(Cl)cccc21` (stereo not shown) [Compound I-2, 4-(2-(8-chloro-4-methyl-1,4-dihydroquinazolin-2-yl)thiazol-4-yl)benzoic acid], the EC50 in the data set with HBV DNA [3] worked out at 6.5 nM; in the data set with HBV e antigen (HBeAg), 5.4 nM; in data set [4], 13.5 nM. The compound also yielded a CC50 at 8 days in data set [5] of more than 50000 nM.

Regarding `CC1(C)N=C(c2nc(-c3ccc(C(=O)O)cc3)cs2)Oc2ccccc21` [Compound I-68, 4-(2-(4,4-dimethyl-4H-benzo[e] [1,3]oxazin-2-yl)thiazol-4-yl)benzoic acid], the EC50 worked out at 81.1 nM with HBV DNA [3], 17 nM with HBV e antigen (HBeAg) and 582 nM in data set [4]. In data set [5], this compound came in with a CC50 at 8 days of more than 50000 nM.

With `O=C(O)c1ccc(-c2csc(C3=NC4(COC4)c4cccc(Cl)c4N3)n2)cc1` [Compound I-11, 4-(2-(8′-chloro-1′H-spiro[oxetanyl-3,4′-quinazolin]-2′-yl)thiazol-4-yl)benzoic acid], the values for the concentration giving a half-maximal response (EC50) (in the data set with HBV DNA [3]; in the data set on HBV e antigen (HBeAg); in data set [4]) were 21 nM, 17 nM and 163 nM, respectively. Also, in data set [5], the cytotoxic concentration (CC50) at 8 days is more than 50000 nM.

Broadly, the EC50 is the concentration needed to bring the measured effect to its halfway point. The CC50 is the concentration that lowers cell viability or growth by half.

(Values after patent US11661420B2 (NANJING HEPO PHARMACEUTICAL CO., LTD, priority 2019, dated 2023).)
